# Source: BindingDB's records for patent US10010539 (Merck Sharp & Dohme, 2018)
# Target: T1, Orexin receptor type 2 (Homo sapiens, UniProt O43614)
# T1 sequence (O43614 whole entry): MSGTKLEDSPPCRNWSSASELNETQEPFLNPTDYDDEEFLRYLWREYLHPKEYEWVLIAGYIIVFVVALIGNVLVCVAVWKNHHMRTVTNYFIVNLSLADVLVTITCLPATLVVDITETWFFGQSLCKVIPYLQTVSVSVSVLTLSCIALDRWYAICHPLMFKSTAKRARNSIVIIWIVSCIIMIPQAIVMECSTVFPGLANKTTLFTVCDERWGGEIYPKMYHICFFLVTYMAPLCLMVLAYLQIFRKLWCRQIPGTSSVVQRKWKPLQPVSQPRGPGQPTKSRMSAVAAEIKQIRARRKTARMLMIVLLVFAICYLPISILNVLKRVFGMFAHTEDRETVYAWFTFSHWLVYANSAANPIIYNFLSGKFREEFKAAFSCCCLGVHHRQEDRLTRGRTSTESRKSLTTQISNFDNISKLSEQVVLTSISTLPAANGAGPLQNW
# Assay: FLIPR Ca2+ Flux Assay
# Procedure: For intracellular calcium measurements, Chinese hamster ovary (CHO) cells expressing the rat orexin-1 receptor or the human orexin-2 receptor, are grown in Iscove's modified DMEM containing 2 mM L-glutamine, […], 1% hypoxanthine-thymidine supplement, 100 U/ml penicillin, 100 μg/ml streptomycin and 10% heat-inactivated fetal calf serum (FCS). The cells are seeded at 20,000 cells/well into Becton-Dickinson black 384-well clear bottom sterile plates coated with poly-D-lysine. All reagents were from GIBCO-Invitrogen Corp. The seeded plates are incubated overnight at 37° C. and 5% CO2. Ala-6,12 human orexin-A as the agonist is prepared as a 1 mM stock solution in 1% bovine serum albumin (BSA) and diluted in assay buffer (HBSS containing 20 mM HEPES, 0.1% BSA and 2.5 mM probenecid, pH7.4) for use in the assay at a final concentration of 70 pM. […] Within the Fluorescent Imaging Plate Reader (FLIPR, Molecular Devices), test compounds are added to the plate in a volume of 25 μl, incubated for 5 min and finally 25 μl of agonist is added. Fluorescence is measured for each well at 1 second intervals for 5 minutes and the height of each fluorescence peak is compared to the height of the fluorescence peak induced by 70 pM Ala-6,12 orexin-A with buffer in place of antagonist.
row,SMILES,IC50
1,"CCOc1ccccc1C(=O)N1C[C@H](n2ncc(C(C)(C)O)n2)CC[C@H]1C [US10010539, 12]",0.0313 µM
2,"CC(C)Oc1ncccc1C(=O)N1C[C@H](n2ncc(C(C)(C)O)n2)CC[C@H]1C [US10010539, 15]",0.0326 µM
